Data: the NIST ThermoML archive (doi:10.1016/j.jct.2009.09.013)

Experiment: xn = mol fraction of the nth substance listed
Details: 101 kPa, Liquid; for speed of sound: Sing-around technique in a fixed-path interferometer; for kinematic viscosity: Vibrating wire viscometry; for mass density: Vibrating tube method

OCCCCO [1,4-butanediol] + CCCCO
Details	kinematic viscosity [m2/s]	mass density [kg/m3]	speed of sound [m/s]
293.02 K, x1 = 1	–	–	1614.9
293.03 K, x1 = 0.7946	–	–	1537.8
293.05 K, x1 = 0.6478	–	–	1482.1
293.05 K, x1 = 0.9234	–	–	1586.4
293.06 K, x1 = 0.3571	–	–	1375.1
293.06 K, x1 = 0.4979	–	–	1426
293.07 K, x1 = 0.2	–	–	1321
293.08 K, x1 = 0.051	–	–	1272.7
298.01 K, x1 = 1	6.99e-05	–	–
298.06 K, x1 = 0.4592	1.56e-05	–	–
298.06 K, x1 = 1	–	–	1602.6
298.07 K, x1 = 0.1507	5.44e-06	–	–
298.07 K, x1 = 0.9374	6e-05	–	–
298.08 K, x1 = 0.2	–	–	1304.8
298.08 K, x1 = 0.5676	2.18e-05	–	–
298.08 K, x1 = 0.6478	–	–	1468.3
298.08 K, x1 = 0.7946	–	–	1524.7
298.09 K, x1 = 0.3571	–	–	1359.7
298.09 K, x1 = 0.7435	3.62e-05	–	–
298.1 K, x1 = 0.051	–	–	1255.7
298.1 K, x1 = 0.4979	–	–	1411.3
298.1 K, x1 = 0.6576	2.84e-05	–	–
298.1 K, x1 = 0.8108	4.34e-05	–	–
298.1 K, x1 = 0.9234	–	–	1573.9
298.14 K, x1 = 0.2986	9.22e-06	–	–
298.15 K, x1 = 0.1507	–	837.834	–
298.15 K, x1 = 0.2986	–	869.164	–
298.15 K, x1 = 0.4592	–	902.986	–
298.15 K, x1 = 0.5676	–	925.394	–
298.15 K, x1 = 0.6576	–	943.952	–
298.15 K, x1 = 0.7435	–	961.447	–
298.15 K, x1 = 0.8108	–	974.991	–
298.15 K, x1 = 0.9374	–	1000.24	–
298.15 K, x1 = 1	–	1012.72	–
302.51 K, x1 = 1	5.63e-05	–	–
302.99 K, x1 = 0.9374	4.76e-05	–	–
303 K, x1 = 0.6576	2.33e-05	–	–
303.01 K, x1 = 0.1507	4.68e-06	–	–
303.01 K, x1 = 0.5676	1.8e-05	–	–
303.01 K, x1 = 0.7435	2.93e-05	–	–
303.01 K, x1 = 0.8108	3.49e-05	–	–
303.04 K, x1 = 0.4592	1.3e-05	–	–
303.06 K, x1 = 0.2986	7.83e-06	–	–
303.15 K, x1 = 0.1507	–	834.13	–
303.15 K, x1 = 0.2986	–	865.589	–
303.15 K, x1 = 0.4592	–	899.553	–
303.15 K, x1 = 0.5676	–	922.055	–
303.15 K, x1 = 0.6576	–	940.685	–
303.15 K, x1 = 0.7435	–	958.245	–
303.15 K, x1 = 0.8108	–	971.848	–
303.15 K, x1 = 0.9374	–	997.175	–
303.15 K, x1 = 1	–	1009.69	–
303.3 K, x1 = 1	–	–	1590.1
303.36 K, x1 = 0.2	–	–	1287.8
303.36 K, x1 = 0.4979	–	–	1396.1
303.36 K, x1 = 0.7946	–	–	1511
303.36 K, x1 = 0.9234	–	–	1561
303.37 K, x1 = 0.051	–	–	1238
303.37 K, x1 = 0.3571	–	–	1343.7
303.39 K, x1 = 0.6478	–	–	1453.8
308.06 K, x1 = 1	4.37e-05	–	–
308.15 K, x1 = 0.1507	–	830.397	–
308.15 K, x1 = 0.2986	–	861.995	–
308.15 K, x1 = 0.4592	–	896.107	–
308.15 K, x1 = 0.5676	–	918.702	–
308.15 K, x1 = 0.6576	–	937.408	–
308.15 K, x1 = 0.7435	–	955.036	–
308.15 K, x1 = 0.8108	–	968.692	–
308.15 K, x1 = 0.9374	–	994.107	–
308.15 K, x1 = 1	–	1006.66	–
308.16 K, x1 = 0.9374	3.79e-05	–	–
308.17 K, x1 = 0.6576	1.9e-05	–	–
308.18 K, x1 = 0.4592	1.09e-05	–	–
308.19 K, x1 = 0.8108	2.8e-05	–	–
308.22 K, x1 = 0.1507	3.96e-06	–	–
308.22 K, x1 = 0.2986	6.63e-06	–	–
308.23 K, x1 = 0.5676	1.48e-05	–	–
308.24 K, x1 = 0.7435	2.37e-05	–	–
308.32 K, x1 = 0.7946	–	–	1498.4
308.32 K, x1 = 1	–	–	1578.3
308.33 K, x1 = 0.051	–	–	1221.5
308.33 K, x1 = 0.9234	–	–	1548.9
308.35 K, x1 = 0.3571	–	–	1328.7
308.35 K, x1 = 0.4979	–	–	1381.9
308.36 K, x1 = 0.2	–	–	1272
308.38 K, x1 = 0.6478	–	–	1440.3
313.12 K, x1 = 1	3.51e-05	–	–
313.15 K, x1 = 0.1507	–	826.639	–
313.15 K, x1 = 0.2986	–	858.379	–
313.15 K, x1 = 0.4592	–	892.64	–
313.15 K, x1 = 0.5676	–	915.331	–
313.15 K, x1 = 0.6576	–	934.116	–
313.15 K, x1 = 0.7435	–	951.814	–
313.15 K, x1 = 0.8108	–	965.521	–
313.15 K, x1 = 0.9374	–	991.027	–
313.15 K, x1 = 1	–	1003.63	–
313.19 K, x1 = 0.9374	3.06e-05	–	–
313.2 K, x1 = 0.6757	1.57e-05	–	–
313.21 K, x1 = 0.5676	1.24e-05	–	–
313.23 K, x1 = 0.4592	9.16e-06	–	–
313.23 K, x1 = 0.7435	1.95e-05	–	–
313.23 K, x1 = 0.8108	2.29e-05	–	–
313.26 K, x1 = 0.1507	3.36e-06	–	–
313.29 K, x1 = 0.2986	5.65e-06	–	–
313.32 K, x1 = 0.051	–	–	1204.9
313.33 K, x1 = 0.7946	–	–	1485.7
313.35 K, x1 = 1	–	–	1566.5
313.36 K, x1 = 0.3571	–	–	1313.8
313.36 K, x1 = 0.9234	–	–	1536.8
313.37 K, x1 = 0.2	–	–	1256.2
313.37 K, x1 = 0.4979	–	–	1367.6
313.39 K, x1 = 0.6478	–	–	1426.9
318.15 K, x1 = 0.1507	–	822.854	–
318.15 K, x1 = 0.2986	–	854.74	–
318.15 K, x1 = 0.4592	–	889.157	–
318.15 K, x1 = 0.5676	–	911.95	–
318.15 K, x1 = 0.6576	–	930.812	–
318.15 K, x1 = 0.7435	–	948.578	–
318.15 K, x1 = 0.8108	–	962.345	–
318.15 K, x1 = 0.9374	–	987.943	–
318.15 K, x1 = 1	–	1000.58	–
318.29 K, x1 = 0.051	–	–	1188.5
318.3 K, x1 = 0.7946	–	–	1473.1
318.35 K, x1 = 0.3571	–	–	1299.1
318.35 K, x1 = 0.4979	–	–	1353.5
318.35 K, x1 = 1	–	–	1554.8
318.36 K, x1 = 0.9234	–	–	1525
318.38 K, x1 = 0.2	–	–	1240.6
318.38 K, x1 = 0.6478	–	–	1413.6
318.56 K, x1 = 0.8108	1.87e-05	–	–
318.72 K, x1 = 1	2.79e-05	–	–
318.73 K, x1 = 0.9374	2.45e-05	–	–
318.74 K, x1 = 0.6575	1.29e-05	–	–
318.75 K, x1 = 0.5676	1.03e-05	–	–
318.75 K, x1 = 0.7435	1.59e-05	–	–
318.76 K, x1 = 0.4592	7.65e-06	–	–
318.8 K, x1 = 0.1507	2.79e-06	–	–
318.81 K, x1 = 0.2986	4.76e-06	–	–

CCCCO [butan-1-ol] + OCCCCO
x2 = 0
Details	kinematic viscosity [m2/s]	mass density [kg/m3]	speed of sound [m/s]
293.03 K	–	–	1257
298.02 K	3.24e-06	–	–
298.07 K	–	–	1239.7
298.15 K	–	805.77	–
302.47 K	2.9e-06	–	–
303.15 K	–	801.928	–
303.35 K	–	–	1221.6
308 K	2.53e-06	–	–
308.15 K	–	798.054	–
308.34 K	–	–	1204.8
312.96 K	2.25e-06	–	–
313.15 K	–	794.146	–
313.37 K	–	–	1188
318.15 K	–	790.196	–
318.37 K	–	–	1171.4
318.61 K	1.99e-06	–	–
